For orientation: Km means the substrate concentration at which the rate is half of its maximum.

The source of these data is patent US5372940A, “D-pantolactone hydrolase and process for the preparation thereof” (Fuji Yakuhin Kogyo Kabushiki Kaisha, priority 1990, dated 1994).

The subject of the experiment is D-pantolactone hydrolase purified from Fusarium oxysporum (IFO 5942). The experiment is described as follows: Substrate specificity (Km) and inhibition of purified D-pantolactone hydrolase. Type of experiment: biochemical. The following applies: for Km: purified enzyme, the compound is the substrate, read-out: Km (Michaelis constant).

Procedure: Fusarium oxysporum (IFO 5942) was inoculated into each of thirty 2l shake flasks each containing 500 ml of culture medium containing 5% sucrose, 0.4% sodium nitrate, 0.2% dipotassium monohydrogenphosphate, 0.05% magnesium sulfate, 0.05% potassium chloride, 0.001% ferric sulfate and 0.002% zinc sulfate (pH 6.0), and subjected to shaking culture at 28° C. for 7 days. The combined culture broths were centrifuged to give 800 g of wet mass of cells. The cells were triturated by means of a DYNO®-MILL with 2.5 l of 0.1 mM dithiothreitol-containing 20 mM Tris-HCl buffer (pH 7.4), and the mixture was centrifuged to give 2.3 l of cell-free extract. […] Furthermore, 572 g of potassium chloride were added to, and dissolved in, this cell-free extract and the mixture was loaded on an Octyl sepharose CL4B column (3×28 cm) and eluted with 3M potassium chloride. 2.4 l of eluted active fractions were dialyzed against 0.1 mM dithiothreitol-containing 20 mM Tris-HCl buffer (pH 7.4). The resultant 2.9 l of enzyme solution were loaded on a DEAE Sephacel column (5.5×34 cm) and eluted with a linear gradient of 0 to 0.5M potassium chloride. 255 ml of eluted active fractions were loaded on a hydroxyapatite column (5×10 cm) and eluted with a linear gradient of 0 to 0.88M potassium phosphate buffer (pH 7.0). 425 ml of eluted active fractions were subjected to ultrafiltration using an Amicon YM 10, and 115 ml of the resultant enzyme concentrate were dialyzed against 0.1 mM dithiothreitol-containing 20 mM Tris-HCl buffer (pH 7.4). 190 ml of the enzyme solution were subjected to ultrafiltration using an Amicon YM 30 and 14.5 ml of the resultant enzyme solution was loaded on a sephacryl S-300 column (2.5×95 cm) and eluted with 0.2M potassium chloride. 44.5 ml of eluted active fractions were dialyzed against 0.1 mM dithiothreitol-containing 20 mM Tris-HCl buffer (pH 7.4), then loaded on a Q sepharose Fast Flow column (1.8×3 cm) and eluted with a linear gradient of 0 to 1M potassium chloride. 7 ml of eluted active fractions were dialyzed against 0.1 mM dithiothreitol-containing 20 mM Tris-HCl buffer (pH 7.4) to obtain 6.8 ml of purified enzyme solution.
In determining enzyme activity, the enzyme activity which hydrolyzes 1 μmol of D-pantolactone in one minute under the conditions specified below was taken as one unit (U).
50 μl of enzyme solution were added to 200 μl of 10% D-pantolactone solution in 0.5M PIPES buffer (pH 7.0). After reaction at 30° C. for 120 minutes, 250 μl of 2 mM EDTA solution in methanol were added to stop the reaction. The resultant reaction mixture was subjected to HPLC (Nucleosil 5C18 4.6×150 mm; eluent 10% methanol; rate of flow 1 ml/min; detection wavelength 230 nm) to determine the % hydrolysis. For example, where the % hydrolysis is 1%, the enzyme activity/ml of enzyme solution corresponds to 1.6×10^-2 U/ml.
Values in parentheses are those for the activity of the respective metal ions at 2.5 mM concentration as measured with the activity value in the case of no addition of metal ions taken as 100.

Regarding `O=C1O[C@@H]([C@H](O)CO)[C@H](O)[C@H]1O` [D-galactonolactone], the Km came out at 3.6 mM. Take `O=C1O[C@@H]([C@H](O)CO)[C@@H](O)[C@H]1O` [D-gulonolactone]: the Km came to 29 mM. Same read-out and setting: for `CC1(C)COC(=O)[C@@H]1O` [D-pantolactone] the value was 82 mM.

In the case of `O=C(O)CN(CCN(CC(=O)O)CC(=O)O)CC(=O)O` [EDTA, reference compound], the “Inhibition of enzyme activity” value (5 mM EDTA) was “inhibited completely”.

As for `O=C1O[C@@H]([C@@H](O)CO)[C@@H](O)[C@H]1O` [L-mannonolactone], the Km was determined as 23 mM.
